“Also recorded” adds a separate entry of the source.

In assay [1] the test system is PD primary fibroblasts. Put plainly: PAS staining of glycogen in Pompe disease fibroblasts. The class given is cell-based, human. As to conditions: 24 h, 50 μM; listed as 144DG11. From the text:
Yellow, Calcein used for cell segmentation, Blue, DAPI nuclear stain.

Assay [2] relates to PD patient-derived skin fibroblasts. Nature of the assay: Autophagic flux in Pompe disease fibroblasts. Type of assay: cell-based, human. As to conditions: serum starved, 50 μM, 24 h. The protocol: FIG. 15 includes a micrograph and a vertical bar graph showing autophagic flux in PD patient-derived skin fibroblasts, serum starved and treated (or not) with 50 μM 144DG11 (indicated as comp. A).
144DG11 can activate autophagy in the lysosomal storage disease (LSD) Pompe disease (PD) in which autophagy is perturbed (FIG. 15). […] This ratio serves as the most accepted marker for autophagy and autophagic flux. […] These observations indicate that, as in the GSD APBD, 144DG11 can activate autophagy also in the typical LSD PD in which autophagy is disturbed.

The target of assay [3] is T1, luminal portion of LAMP1 (Homo sapiens, UniProt P11279).
T1 sequence (P11279 29-382 limits assumed): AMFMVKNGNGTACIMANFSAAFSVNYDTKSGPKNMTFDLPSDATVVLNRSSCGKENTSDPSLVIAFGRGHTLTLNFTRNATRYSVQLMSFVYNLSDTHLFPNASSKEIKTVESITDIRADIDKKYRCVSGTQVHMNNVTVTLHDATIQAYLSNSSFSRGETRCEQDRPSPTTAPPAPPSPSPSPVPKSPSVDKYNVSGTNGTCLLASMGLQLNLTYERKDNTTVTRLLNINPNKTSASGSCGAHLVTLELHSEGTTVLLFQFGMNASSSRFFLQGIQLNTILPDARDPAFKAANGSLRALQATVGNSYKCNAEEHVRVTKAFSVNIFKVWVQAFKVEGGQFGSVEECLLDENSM
Nature of the assay: Surface plasmon resonance (SPR). Type of assay: binding. The source says: FIGS. 5A-5E include images of experiments showing hetero-assembly forms around Compound 1 and not around endogenous molecules as shown by the liquid crystals formed in experiments 1-3 (5A); image of STRING network of targets at the interactome of Compound 1 (5B); cellular thermal shift assay (CETSA) of different targets of the Compound 1 hetero-assembly (5C); surface plasmon resonance sensograms of binding of Compound 1 to LAMP1 (5D); sensogram experiments consisting of association and dissociation at the indicated concentration ranges and pH values were then conducted.
The inventors have investigated the mechanism of action of 144DG11. To that end, the inventors first decided to determine its molecular target. Nematic protein organization technique (NPOT, Inoviem, Ltd.) was applied to homogenates of APBD patient fibroblasts. The NPOT analysis has discovered protein hetero assemblies uniquely generated around 144DG11 only when it was added to the cell homogenates (FIG. 5A). The next step in this analysis has identified the interactome of protein targets interacting with 144DG11 in APBD patients' fibroblasts. […] Moreover, the inventors have tested by cellular thermal shift assay the specific interaction of 144DG11 with 6 of the 8 targets discovered by NPOT. […] This finding relates to a novel pathogenic hypothesis connecting cellular glycogen overload with glycogen trafficking to lysosomes via Starch Binding Domain containing Protein 1. To validate 144DG11's interaction with LAMP1, the inventors have used surface plasmon resonance (SPR) technology. […] The inventors hypothesized that this slow rate of association could be explained by inhibited diffusion of 144DG11 due to the bulky oligosaccharides at the glycosylation sites. Therefore, the inventors have repeated the SPR experiments with a chemically deglycosylated luminal LAMP1 domain. […] The inventors have further investigated 144DG11 binding to LAMP1 by structure-based computational docking. In the search for a putative binding site for Compound 1 in LAMP1, the inventors have analyzed the N- and C-terminal subdomains of its luminal domain (residues A29-R195 and S217-D378, respectively), which have a similar topology. These domains were modeled and computationally docked against decoys to Compound 1 at the intralysosomal pH 5 based on the known crystal structure of mouse LAMP1 C-terminal domain (PDB ID 5gv0). […] However, they might still affect Compound 1 diffusion.
On the technique in general: In SPR one partner is held on a chip, and binding of the other changes the refractive index at the surface.

Assay [4] has as its system primary human non-small-cell lung cancer (NSCLC) cells. Nature of the assay: LC3, p62 and PAS staining of lung cancer cells. The class given is cell-based. The protocol:
FIGS. 20A-20B include fluorescent micrographs showing primary non-small cell-lung cancer. Cells were treated and stained for the autophagic substrates LC3 (20A) and p62 (20B) as in 19A-19B.
NAD+ and NADH are key precursors for the electron transfer chain, TCA cycle, glycolysis, amino acid synthesis, fatty acid synthesis, and nucleotide synthesis. The NAD+/NADH ratio reports the extent of overall catabolism and the balance between glycolysis and OxPhos. The increase in the NAD+/NADH ratio means acceleration of electron flow in the mitochondrial electron transport chain (note, not mitochondrial ATP production) and of glycolysis to better manage metabolic demands. Furthermore, Sirt1 induction, often associated with increased NAD+/NADH ratio, is a well-documented and innovative anti-aging, calorie restriction-mimic and anti-cancer therapeutic strategy (see for example Hyun et al., (2020)). Thus, the results in Gsd1a cells (FIG. 21), showing induction of the NAD+/NADH ratio, as well as Sirt1, indicate that 144DG11 is a promising therapy for a plethora of different metabolic disorders, aging-related complications, and cancer.

Assay [5] relates to Gbe^ys/ys mice. Put plainly: In vivo metabolism in metabolic cages. To be noted: 9 months old mice. The protocol:
FIGS. 3A-3I include a graph of the effect of Compound 1 on in vivo metabolism; mice were monitored by the Promethion High-Definition Behavioral Phenotyping System (Sable Instruments, Inc.) over a 24 hr period. Effective mass was calculated by power of 0.75. Data are mean±SEM from n=11 9 months old mice in the wt. control vehicle arm, n=6 9 months old mice in the GBE^ys/ys vehicle arm and n=7 9 months old mice in the Gbe^ys/ys 144DG11 (Compound 1)-treated arm. All injections were from the age of 4 months. […] Blood metabolic panel based on n=5, 9.5 months old mice treated as indicated (3I). Blood glucose was increased, and blood triglycerides decreased in Gbe^ys/ys […] by Compound 1 (p<0.05, Student's t-tests). *p<0.05 v wt. controls, #p<0.05 v GBE^ys/ys vehicle treated mice;
The effect of Compound 1 on various metabolic parameters was determined in vivo using metabolic cages. Fuel preference at the whole animal level is determined by the respiratory quotient (RQ, the ratio of CO2 produced to O2 consumed). Lower RQ indicates higher fat burn, while higher RQ indicates higher carbohydrate burn. […] Stimulation of ambulatory activity (FIG. 3E) and of meal size and water intake (FIGS. 3F-3H) are in line with this observation of stimulation of carbohydrate catabolism in affected animals by Compound 1. Moreover, put together, the increased fuel burning, and food intake indicate that Compound 1 can improve metabolic efficiency in the affected animals.

As to `COCCN(Cc1sccc1C)C(=O)c1cc(C)nc(O)c1` [Compound 1], the “glycogen (PAS staining)” value in assay [1] was “reduce glycogen; also recorded: significantly lowered PAS staining”. Besides, the “sensitivity to vinblastine (increase in the LC3II/LC3I ratio)” value in assay [2] is listed as “increased”. Also, the “binding to LAMP1” value in assay [3] (cytoplasmic pH 7) is on record as “not at the cytoplasmic pH 7”. Moreover, in assay [3] (intermediate pH 6), the “binding to LAMP1” value is recorded as “some binding starting”. Further, in assay [3] (lysosomal pH 4.5-5), the “binding to LAMP1” value was “specific and dose-dependent binding”. Moreover, the “kon (rate of association)” value in assay [3] (pH 4.5) is reported as “slow”. The Kd in assay [3] (read-out: apparent KD) was 6.3 mM. For the same compound, in assay [4], the “autophagy (LC3, p62)” value is “induced autophagy” and the glycogen levels entry is listed as “did not lower glycogen levels”. Besides, in assay [5], the ambulatory activity result was “Stimulation”; the “carbohydrate burning at the expense of fat burning” value is recorded as “increases”; the “meal size and water intake” value is on record as “Stimulation”; the total energy expenditure result was “increases”. Besides, the “respiratory quotient (RQ)” value in assay [5] (injections from age 4 months) is “increased RQ to even higher levels than those of the wild type (wt) animals”.
